Measurements: ChEMBL document CHEMBL4359934, “Green chemistry appended synthesis, metabolic stability and pharmacokinetic assessment of medicinally important chromene dihydropyrimidinones” (Bioorg Med Chem Lett, 2019)
In brackets after ≈: the same amount, converted by molar mass.

Experiments:
[1] = Ratio of drug level in blood to plasma (unknown origin) at 500 nM incubated for 60 mins by LC-MS/MS analysis; assay type: ADME, cell-free; settings: blood and plasma
[2] = Ratio of drug level in blood to plasma (unknown origin) at 500 nM incubated for 15 mins by LC-MS/MS analysis; assay type: ADME, cell-free; settings: blood and plasma
[3] = Ratio of drug level in blood to plasma (unknown origin) at 500 nM incubated for 45 mins by LC-MS/MS analysis; assay type: ADME, cell-free; settings: blood and plasma
[4] = Ratio of drug level in blood to plasma (unknown origin) at 500 nM measured immediately by LC-MS/MS analysis; assay type: ADME, cell-free; settings: blood and plasma
[5] = Ratio of drug level in blood to plasma (unknown origin) at 500 nM incubated for 30 mins by LC-MS/MS analysis; assay type: ADME, cell-free; settings: blood and plasma
[6] = species: Rattus norvegicus; assay: Inhibition of rat P-gp ATPase in jejuna mucosa membrane assessed as remaining enzyme activity at 20 uM using ATP as substrate preincubated for 5 mins followed by substrate addition and measured after 30 mins; assay type: cell membranes
[7] = Protein binding in plasma (unknown origin) incubated for 4 hrs by red equilibrium dialysis based LC-MS/MS analysis; assay type: ADME, cell-free; settings: read-out: PPB
[8] = n-Octanol-PBS buffer distribution coefficient, log D of compound incubated for 4 hrs by LC-MS/MS analysis; assay type: physicochemical
[9] = Intrinsic clearance in human liver at 10 uM by LC-MS/MS analysis; assay type: ADME, tissue-based; settings: read-out: CLH
[10] = Permeability coefficient of compound incubated for 5 hrs by LC-MS/MS analysis based PAMPA assay; assay type: ADME
[11] = species: Rattus norvegicus; assay: Inhibition of rat P-gp ATPase in jejuna mucosa membrane assessed as remaining enzyme activity at 10 to 40 uM using ATP as substrate preincubated for 5 mins followed by substrate addition and measured after 30 mins; assay type: cell membranes
[12] = Intrinsic clearance in rat microsome at 10 uM by LC-MS/MS analysis; assay type: ADME; settings: microsomes
[13] = Metabolic stability in human liver microsomes assessed as remaining compound at 10 uM measured at 30 mins by LC-MS/MS analysis relative to control; assay type: ADME, Microsome; settings: read-out: Stability
[14] = Metabolic stability in rat liver microsomes assessed as remaining compound at 10 uM measured at 45 mins by LC-MS/MS analysis relative to control; assay type: ADME, Microsome; settings: read-out: Stability
[15] = Solubility of compound in water incubated for 5 hrs by LC-MS/MS analysis; assay type: physicochemical
[16] = Metabolic stability in human liver microsomes assessed as remaining compound at 10 uM measured at 15 mins by LC-MS/MS analysis relative to control; assay type: ADME, Microsome; settings: 0.25 h
[17] = species: Rattus norvegicus; assay: Inhibition of rat P-gp ATPase in jejuna mucosa membrane at 10 to 40 uM using ATP as substrate preincubated for 5 mins followed by substrate addition and measured after 30 mins relative to control; assay type: cell membranes
[18] = test system: A549; assay: Cytotoxicity against human A549 cells assessed as reduction in cell viability by MTT assay; assay type: functional, cell-based
[19] = Stability in rat liver microsomes assessed as hepatic extraction ratio at 10 uM by LC-MS/MS analysis; assay type: ADME, Microsome; settings: read-out: ERH
[20] = Stability in human liver microsomes assessed as hepatic extraction ratio at 10 uM by LC-MS/MS analysis; assay type: ADME, Microsome; settings: read-out: ERH
[21] = Metabolic stability in rat liver microsomes assessed as remaining compound at 10 uM measured at 30 mins by LC-MS/MS analysis relative to control; assay type: ADME, Microsome; settings: read-out: Stability
[22] = Intrinsic clearance in human microsomes at 10 uM by LC-MS/MS analysis; assay type: ADME, Microsome
[23] = Metabolic stability in human liver microsomes assessed as half life at 10 uM by LC-MS/MS analysis; assay type: ADME, Microsome
[24] = Intrinsic clearance in rat liver at 10 uM by LC-MS/MS analysis; assay type: ADME, tissue-based; settings: read-out: CLH
[25] = Metabolic stability in rat liver microsomes assessed as remaining compound at 10 uM measured at 15 mins by LC-MS/MS analysis relative to control; assay type: ADME, Microsome; settings: read-out: Stability
[26] = n-Octanol-water partition coefficient, log P of compound incubated for 4 hrs by LC-MS/MS analysis; assay type: physicochemical
[27] = Metabolic stability in rat liver microsomes assessed as half life at 10 uM by LC-MS/MS analysis; assay type: ADME, Microsome
[28] = Metabolic stability in human liver microsomes assessed as remaining compound at 10 uM measured at 45 mins by LC-MS/MS analysis relative to control; assay type: ADME, Microsome; settings: read-out: Stability

CC(C)NCC(O)COc1ccc(CC(N)=O)cc1 (stereo not drawn) [ATENOLOL] gave a blood plasma ratio at 1 h, 0.5 µM [1] of 1, a blood plasma ratio at 0.25 h, 0.5 µM [2] of 1.17 and a blood plasma ratio at 0.75 h, 0.5 µM [3] of 1.15. For the same compound, the blood plasma ratio at 0 min, 0.5 µM [4] was 1.3 and the blood plasma ratio at 0.5 h, 0.5 µM [5] was 1.2.

O[C@@H](COc1cccc2ncccc12)CN1CCN([C@@H]2c3ccccc3[C@@H]3[C@H](c4ccccc42)C3(F)F)CC1 gave an Activity [6] of 2.8 µM/min/µL.

Compound CCOC(=O)C1=C(C)NC(=O)NC1c1cc2c(cc1OC)OC(C)(CC)C=C2Cl (stereo not drawn) has a fraction unbound at 4 h [7] of less than 0.1, a blood plasma ratio at 1 h, 0.5 µM [1] of 1.4 and a logD at 4 h [8] of 0.08. For the same compound, the CLint scaled at 10 µM [9] was 32.3 mL/min/kg, the “log Pe” value [10] was “Dose-dependent effect” and the Activity [11] was 6.7 µM/min/µL. It also gave a CLint [12] of 19 µL/min/mg, a remaining at 0.5 h, 10 µM [13] of 73% and a blood plasma ratio at 0.25 h, 0.5 µM [2] of 1.11. It also gave a remaining at 0.75 h, 10 µM [14] of 76%, a solubility at 5 h [15] of 6.8 µg/mL (≈ 16.2 µM) and a Stability [16] of 73%. For the same compound, the inhibition [17] was 1 to 12%, the blood plasma ratio at 0.75 h, 0.5 µM [3] was 1.35 and the IC50 [18] was 139 nM. It also gave a blood plasma ratio at 0 min, 0.5 µM [4] of 0.9, a hepatic extraction ratio at 10 µM [19] of 0.41 and a hepatic extraction ratio at 10 µM [20] of 0.6. The remaining at 0.5 h, 10 µM [21] was 76%, the CLint [22] was 20.6 µL/min/mg and the blood plasma ratio at 0.5 h, 0.5 µM [5] was 1.25. It also gave a t1/2 [23] of 1.38 h, a CLint scaled at 10 µM [24] of 34 mL/min/kg and a remaining at 0.25 h, 10 µM [25] of 76%. For the same compound, the logP at 4 h [26] was 4.06, the half-life at 10 µM [27] was 1.18 h and the remaining at 0.75 h, 10 µM [28] was 73%.
